Laboratory results taken from PubChem BioAssay AID1259411 (Chemical Carcinogenesis Research Information System (CCRIS), 2018).
Activity calls are given as the source filed them. No rule for the calls is given here.

Tested on: rodent carcinogenicity bioassays, tumor incidence
Assay: CCRIS carcinogenicity studies
How it was run: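 NCI-built, expert-reviewed records of carcinogenicity and related test outcomes (mutagenicity, tumor promotion/inhibition) compiled from published and report sources, historical span 1985-2011, not updated.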

Nc1ccc(N)c2c1C(=O)c1c(N)ccc(N)c1C2=O
carcinogen call (Species: MOUSE, Strain/Sex: B6C3F1/FEMALE, Route: ORAL, Dose: 0, 600, 1200, 2500 PPM IN DIET FOR 104 WK (STUDY DURATION: 105 WK), Dose: 0, 600, 1200, 2500 PPM IN DIET FOR 104 WK (STUDY DURATION: 105 WK)): inactive; negative
carcinogen call (Species: MOUSE, Strain/Sex: B6C3F1/MALE, Route: ORAL, Dose: 0, 600, 1200, 2500 PPM IN DIET FOR 104 WK (STUDY DURATION: 105 WK), Dose: 0, 600, 1200, 2500 PPM IN DIET FOR 104 WK (STUDY DURATION: 105 WK), Tumor Site: Type of Lesion: LIVER: HEPATOCELLULAR ADENOMA OR CARCINOMA, LUNG: ALVEOLAR/BRONCHIOLAR ADENOMA OR CARCINOMA): equivocal
carcinogen call (Species: RAT, Strain/Sex: F344/FEMALE, Route: ORAL, Dose: 0, 1250, 2500, 5000 PPM IN DIET FOR 103 WK (STUDY DURATION: 105 WK), Dose: 0, 1250, 2500, 5000 PPM IN DIET FOR 103 WK (STUDY DURATION: 105 WK), Tumor Site: Type of Lesion: URINARY BLADDER: SQUAMOUS CELL PAPILLOMA, SQUAMOUS CELL CARCINOMA, TRANSITIONAL CELL PAPILLOMA, TRANSITIONAL CELL CARCIN): active; positive
carcinogen call (Species: RAT, Strain/Sex: F344/MALE, Route: ORAL, Dose: 0, 1250, 2500, 5000 PPM IN DIET FOR 103 WK (STUDY DURATION: 105 WK), Dose: 0, 1250, 2500, 5000 PPM IN DIET FOR 103 WK (STUDY DURATION: 105 WK), Tumor Site: Type of Lesion: URINARY BLADDER: SQUAMOUS CELL PAPILLOMA, SQUAMOUS CELL PAPILLOMA OR CARCINOMA, TRANSITIONAL CELL PAPILLOMA, TRANSITIONA): active; positive

C#CCN1C(=O)COc2cc(F)c(N3C(=O)C4=C(CCCC4)C3=O)cc21
carcinogen call (Species: Mouse, Strain/Sex: Crj:CD-1 (ICR)/Female (51/Group), Route: Oral, Dose: 0, 36.6, 346.4, 859.1 mg/kg/day of 94.8% flumioxazin in diet for 78 wk, study duration 78 wk, Dose: 0, 36.6, 346.4, 859.1 mg/kg/day of 94.8% flumioxazin in diet for 78 wk, study duration 78 wk): inactive; negative
carcinogen call (Species: Mouse, Strain/Sex: Crj:CD-1 (ICR)/Male (51/Group), Route: Oral, Dose: 0, 31.1, 314.9, 754.1 mg/kg/day of 94.8% flumioxazin in diet for 78 wk, study duration 78 wk, Dose: 0, 31.1, 314.9, 754.1 mg/kg/day of 94.8% flumioxazin in diet for 78 wk, study duration 78 wk): inactive; negative
carcinogen call (Species: Rat, Strain/Sex: Crj:CD(SD)/Female (50/Group), Route: Oral, Dose: 0, 2.2, 21.8, 43.6 mg/kg/day of 94.8% flumioxazin in diet for up to 2 yr, study duration 2 yr, Dose: 0, 2.2, 21.8, 43.6 mg/kg/day of 94.8% flumioxazin in diet for up to 2 yr, study duration 2 yr): inactive; negative
carcinogen call (Species: Rat, Strain/Sex: Crj:CD(SD)/Male (50/Group), Route: Oral, Dose: 0, 1.8, 18.0, 36.5 mg/kg/day of 94.8% flumioxazin in diet for up to 2 yr, study duration 2 yr, Dose: 0, 1.8, 18.0, 36.5 mg/kg/day of 94.8% flumioxazin in diet for up to 2 yr, study duration 2 yr): inactive; negative

C#C[C@]1(O)CC[C@H]2[C@@H]3CCc4cc(O)ccc4[C@H]3CC[C@@]21C
carcinogen call (Species: MOUSE, Route: ORAL, Tumor Site: Type of Lesion: CERVIX, MAMMARY GLAND, PITUITARY GLAND, UTERUS, Tumor Site: Type of Lesion: CERVIX, MAMMARY GLAND, PITUITARY GLAND, UTERUS): active; positive
carcinogen call (Species: MOUSE, Strain/Sex: CD-1/FEMALE, Route: SUBCUTANEOUS, Dose: 0, 2 UG/D IN CORN OIL ON DAYS 1-5 OF LIFE (STUDY DURATION: 12-18 WK), Tumor Site: Type of Lesion: UTERUS: ADENOCARCINOMA): active; positive
carcinogen call (Species: RAT, Route: ORAL, SUBCUTANEOUS, Tumor Site: Type of Lesion: LIVER): active; positive
carcinogen call (Species: Rat, Strain/Sex: Sprague-Dawley/Female (50/Group), Route: Oral, Dose: 0, 2, 10, 50 ppb in diet, continuous exposure from conception through 2 yr, Dose: 0, 2, 10): inactive; negative
carcinogen call (Species: Rat, Strain/Sex: Sprague-Dawley/Female (50/Group), Route: Oral, Dose: 0, 2, 10, 50 ppb in diet, continuous exposure from conception through PND 140, followed by control diet to 2 yr, Dose: 0, 2, 10): inactive; negative (authors describe as equivocal evidence based on stromal polyp (2/51, 5
carcinogen call (Species: Rat, Strain/Sex: Sprague-Dawley/Male (50/Group), Route: Oral, Dose: 0, 2, 10, 50 ppb in diet, continuous exposure from conception through 2 yr, Dose: 0, 2, 10): inactive; negative
carcinogen call (Species: Rat, Strain/Sex: Sprague-Dawley/Male (50/Group), Route: Oral, Dose: 0, 2, 10, 50 ppb in diet, continuous exposure from conception through PND 140, followed by control diet to 2 yr, Dose: 0, 2, 10): inactive; negative
